“Also recorded” adds a separate entry of the source. Where a name gives a salt, the structure may show the parent alone.
Key:
[1] = cited from earlier work
CD-1 mice [2] = assay: Mouse study: protection against doxorubicin-induced cardiac damage, plasma cardiac troponin I (cTnI) ELISA; assay type: in vivo; conditions: 25 mg/kg doxorubicin ip, 1.0 or 3.0 mg/kg TK-115339 ip 3 hours before and after doxorubicin, single ip on days 2-4, plasma on day 5 (96 hours)
From the text: To this end, a representative nitrone test article (TK-115339) was examined for its ability to mitigate one aspect of doxorubicin-induced toxicity, cardiac damage, in CD-1 mice as determined by concentration of cardiac troponin I (cTnI) in animal plasma (Li et al., Circulation, 113:535-43 (2006) and Hou et al., J Lab Clin Med., 146: 299-303 (2005). Doxorubicin was purchased from Xinchem Corporation (China). TK-115339 was synthesized at the University of California, Santa Cruz. […]
On days 2, 3 and 4, the mice received a single ip injection of either 1 or 3 mg/kg of TK-115339. […] The plasma samples were analyzed for cTnI using a commercial ELISA test according to the manufacture's recommendations (Life Diagnostics, Inc., Cat. No. 2010-1-HSP).
(§1) Data was analyzed using SPSS software (SPSS Inc., Chicago, Ill.). […]
Representative of the data shown in FIG. 1, mice (10 animals/treatment group) were dosed ip on Day 1 with vehicle (pH 7.4 buffered saline), 25 mg/kg doxorubicin ip or 25 mg/kg doxorubicin ip plus 1.0 or 3.0 mg/kg TK-115339 3 hours before, and after, the doxorubicin treatment. […] The plasma samples were analyzed for cTnI using a commercial ELISA test for troponin I. Boxplots of troponin findings from the study are provided in FIG. 1.

CD-1 mice [3] = assay: Mouse dose response study: protection against doxorubicin-associated cardiotoxicity, plasma cTnI ELISA; assay type: in vivo; conditions: 25 mg/kg doxorubicin ip, 0.0001, 0.001, 0.01, 0.1 or 1.0 mg/kg TK-115339 ip 3 hours before and after doxorubicin, plasma on day 5
Description: The aim of this study was to establish the dose response for the protection afforded by TK-115339 against doxorubicin-associated cardiotoxicity.
Eight to ten-week-old male CD-1 male mice (Charles River, Hollister, Calif.) weighing 30-35 g were housed in a climate-controlled environment, the light was controlled (light:dark, 12:12), and the animals were given food and water ad libitum. The animals (12 animals/treatment group) were dosed ip (200 μl volume) on day 1 with 25 mg/kg doxorubicin or 25 mg/kg doxorubicin plus 0.0001, 0.001, 0.01, 0.1 or 1.0 mg/kg TK-115339 3 hours before, and after, the doxorubicin treatment. […]
On days 2 and 3 the mice received a single ip injection of either saline (doxorubicin alone group) or […] (dose ranging experimental groups). […] The plasma samples were analyzed for cTnI using a commercial ELISA test according to the manufacture's recommendations (Life Diagnostics, Inc., Cat. No. 2010-1-HSP).
as §1
Representative of the data shown in FIG. 2, mice (12 animals/treatment group) were dosed ip on Day 1 with 25 mg/kg doxorubicin or 25 mg/kg doxorubicin plus 0.0001, 0.001, 0.01, 0.1 or 1.0 mg/kg TK-115339 3 hours before, and after, the doxorubicin treatment. […] The plasma samples were analyzed for cTnI using a commercial ELISA test.

[4] = test system: CCRF-CEM human cancer cells; assay: Cell culture study: interference with doxorubicin activity, alamarBlue cell viability; assay type: cell-based; conditions: doxorubicin 0.01, 0.1, 1.0 μM with TK-115339 0.01, 0.1, 1.0 μM, 72 hour incubation
Description: The aim of this study was to examine whether or not a representative nitrone test article, TK-115339, interfered with the desired activity of doxorubicin in vitro.
The tumor cell line for the cell culture study was CCRF-CEM (Human T-ALL, CCL-119) from ATCC, and cells were cultured in accordance with the product information sheets replacing 75 cm^2 culture flasks with 56.7 cm^2 Petri dishes and adding 1% penicillin-streptomycin solution and 1% GlutaMAX™ to the culture medium. The compound, TK-115339, was dissolved in DMSO then diluted to obtain initial working solutions of 1, 10 and 100 μM. […]
Cells were thawed according to ATCC protocol and plated in 10 mL of sterile filtered growth medium. […] Doxorubicin was evaluated at concentrations of 0.01, 0.1 and 1.0 μM alone or in combination with TK-115339 at concentrations of 0.01, 0.1 and 1.0 μM. […]
At the end of incubation, cell viability was determined by optical absorbance of alamarBlue® at λ=570 and 600 nm in accordance using a standard protocol provided by the vendor, Biosource. Data was analyzed using SPSS 14.0 software (SPSS Inc., Chicago, Ill.). Statistical significance of the differences between experimental groups was calculated by using one-way ANOVA followed by a Bonferroni post-hoc analysis.
Cells were prepared and tested as described above. […] For each condition, 12 replicates were analyzed. […]

| SMILES | solubility in methanol ([1]; methanol) | solubility in water ([1]; water) | protection from doxorubicin-induced cardiac damage estimated by plasma cardiac troponin I (cTnI) (CD-1 mice [2]) | dose response of protection from doxorubicin-induced cardiac damage (plasma cardiac troponin) (CD-1 mice [3]) | interference with tumor cell anti-growth activity (cytotoxicity) of doxorubicin, cell viability [4] |
| --- | --- | --- | --- | --- | --- |
| COc1cccc2c1C(=O)c1c(O)c3c(c(O)c1C2=O)C[C@@](O)(C(=O)CO)C[C@@H]3O[C@H]1C[C@H](N)[C@H](O)[C@H](C)O1 [Doxorubicin hydrochloride, 5,12-naphthacenedione,10-[(3-amino-2,3,6-trideoxy-α-L-Iyxo-hexopyranosyl)oxy]-7,8,9,10-tetrahydro-6,8,11-trihydroxy-8-(hydroxyacetyl)-1-methoxy-, hydrochloride, (8S-cis)-(9Cl)] | slightly soluble in methanol | soluble in water |  |  |  |
| CC(C)(C)[N+]([O-])=Cc1ccc(SSc2ccc(C=[N+]([O-])C(C)(C)C)cc2)cc1 [TK-115339, symmetrical disulfide conjugate of alpha-(4-sulfanylphenyl)-N-tert-butylnitrone] |  |  | mitigate one aspect of doxorubicin-induced toxicity, cardiac damage in CD-1 mice; also recorded: protects mice from doxorubicin-induced cardiac damage | dose-response for the protection; also recorded: dose proportional | does not interfere with the toxicity of doxorubicin; also recorded: does not interfere with the tumor cell anti-growth activity of doxorubicin |

Source: patent publication US9061038B2, “Doxorubicin adjuvants to reduce toxicity and methods for using the same” (Tosk, Incorporated, priority 2008, dated 2015)
